Data reported in patent US6737383B1, “Herbicidal oxadiazolidines” (priority 1999, dated 2004).

How the values were obtained:
bedstraw = assay: Test B pre/postemergence bedstraw; assay type: in vivo, Galium aparine
Summary of the method: (§1)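 Herbicidal effect was estimated by eye on a ten-point control scale after plants spent twelve to sixteen days in a greenhouse following soil or foliar treatment. Foliar sprays targeted plants at one to four leaves; all doses were formulated in a non-phytotoxic solvent with surfactant.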

blackgrass = assay: Test B pre/postemergence blackgrass; assay type: in vivo, Alopecurus myosuroides
Summary of the method: as §1

surinam grass = assay: Test B pre/postemergence surinam grass; assay type: in vivo, Brachiaria decumbens
Summary of the method: as §1

cocklebur = assay: Test B pre/postemergence cocklebur; assay type: in vivo, Xanthium strumarium
Summary of the method: as §1

corn = assay: Test B pre/postemergence corn; assay type: in vivo, Zea mays
Summary of the method: as §1

crabgrass = assay: Test B pre/postemergence crabgrass; assay type: in vivo, Digitaria sanguinalis
Summary of the method: as §1

giant foxtail = assay: Test B pre/postemergence giant foxtail; assay type: in vivo, Setaria faberii
Summary of the method: as §1

morningglory = assay: Test B pre/postemergence morningglory; assay type: in vivo, Ipomoea hederacea
Summary of the method: as §1

pigweed = assay: Test B pre/postemergence pigweed; assay type: in vivo, Amaranthus retroflexus
Summary of the method: as §1

rape = assay: Test B pre/postemergence rape; assay type: in vivo, Brassica napus
Summary of the method: as §1

sugar beet = assay: Test B pre/postemergence sugar beet; assay type: in vivo, Beta vulgaris
Summary of the method: as §1

wheat = assay: Test B pre/postemergence wheat; assay type: in vivo, Triticum aestivum
Summary of the method: as §1

wild oat = assay: Test B pre/postemergence wild oat; assay type: in vivo, Avena fatua
Summary of the method: as §1

purple nutsedge = assay: Test B pre/postemergence purple nutsedge; assay type: in vivo, Cyperus rotundus
Summary of the method: as §1

rice = assay: Test B flood test rice; assay type: in vivo, Oryza sativa
Summary of the method: (§2)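 Flood test on plants grown to the 2-leaf stage; treated plants kept in greenhouse twelve to sixteen days, then visually rated against controls on a 0 (no effect) to 10 (complete control) scale.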

bamyardgrass = assay: Test B flood test barnyardgrass; assay type: in vivo, Echinochloa crus-galli
Summary of the method: as §2

[1] = Preemergence, Rate 62 g/ha, scale of 0 to 10 where 0 is no effect and 10 is complete control
[2] = Preemergence, Rate 250 g/ha, scale of 0 to 10 where 0 is no effect and 10 is complete control
[3] = Preemergence, Rate 500 g/ha, scale of 0 to 10 where 0 is no effect and 10 is complete control
[4] = Rate 62 g/ha, Postemergence, scale 0 to 10, 0 no effect, 10 complete control
[5] = Rate 125 g/ha, Postemergence, scale of 0 to 10 where 0 is no effect and 10 is complete control
[6] = Rate 250 g/ha, Postemergence, scale of 0 to 10 where 0 is no effect and 10 is complete control
[7] = Rate 500 g/ha, Postemergence, scale 0 to 10, 0 no effect, 10 complete control
[8] = Rate 62 g/ha, headed Pre-emergence (flood test species), scale 0 to 10 (0 no effect, 10 complete control)
[9] = Rate 125 g/ha, Pre-emergence, flood test species, scale 0 to 10 where 0 is no effect and 10 is complete control
[10] = Rate 250 g/ha, Pre-emergence, flood-test species, scale 0 to 10, 0 is no effect, 10 is complete control
[11] = Rate 500 g/ha, Pre-emergence, flood test species, scale 0 to 10 (0 no effect, 10 complete control)

CC(C)N(C(=O)n1oc(=O)n(C2CC2)c1=O)c1ccc(F)cc1F [Compound 299]
7: Bedstraw plant response rating (bedstraw; [5]) | Blackgrass plant response rating (blackgrass; [4]) | Plant response rating, B. signalgrass (surinam grass; [6]) | Giant foxtail plant response rating (giant foxtail; [4]) | Giant foxtail plant response rating (giant foxtail; [5]) | Morningglory plant response rating (morningglory; [3]) | Plant response rating, Rape (rape; [6]) | Wheat plant response rating (0 to 10 scale) (wheat; Preemergence, Rate 125 g/ha) | Wild oats plant response rating (0 to 10 scale) (wild oat; Preemergence, Rate 125 g/ha)
3: B. signalgrass plant response rating (surinam grass; [5]) | Plant response rating, Corn (corn; [6]) | Crabgrass plant response rating (crabgrass; [5]) | Morningglory plant response rating (morningglory; [4]) | Redroot pigweed plant response rating (pigweed; [5]) | Rape plant response rating (rape; [5]) | Sugarbeets plant response rating (sugar beet; [1]) | Sugarbeets plant response rating (sugar beet; [5]) | Wheat plant response rating (wheat; [1]) | Wheat plant response rating (wheat; [5]) | Plant response rating, Wild oats (wild oat; [6])
5: Cocklebur plant response rating (cocklebur; [7]) | Morningglory plant response rating (morningglory; [5])
1: Rape plant response rating (rape; [1]) | Rape plant response rating (rape; [4])
2: Bedstraw plant response rating (bedstraw; [4]) | Cocklebur plant response rating (cocklebur; [5]) | Morningglory plant response rating (0 to 10 scale) (morningglory; Preemergence, Rate 125 g/ha) | Redroot pigweed plant response rating (pigweed; [4]) | Sugarbeets plant response rating (sugar beet; [4]) | Wild oats plant response rating (wild oat; [1]) | Barnyardgrass plant response rating (bamyardgrass; [9])
9: Blackgrass plant response rating (blackgrass; [1]) | Blackgrass plant response rating (blackgrass; [7]) | B. signalgrass plant response rating (0 to 10 scale, 0 is no effect, 10 is complete control) (surinam grass; Preemergence, Rate 125 g/ha) | B. signalgrass plant response rating (surinam grass; [2]) | Crabgrass plant response rating (0 to 10 scale) (crabgrass; Preemergence, Rate 125 g/ha) | Crabgrass plant response rating (crabgrass; [2]) | Crabgrass plant response rating (crabgrass; [3]) | Giant foxtail plant response rating (giant foxtail; [1]) | Redroot pigweed plant response rating (pigweed; [1]) | Sugarbeets plant response rating (sugar beet; [2]) | Barnyardgrass plant response rating (bamyardgrass; [11])
10: Bedstraw plant response rating (bedstraw; [1]) | Bedstraw plant response rating (0 to 10 scale) (bedstraw; Preemergence, Rate 125 g/ha) | Bedstraw plant response rating (bedstraw; [2]) | Bedstraw plant response rating (bedstraw; [3]) | Blackgrass plant response rating (0 to 10 scale) (blackgrass; Preemergence, Rate 125 g/ha) | Blackgrass plant response rating (blackgrass; [2]) | Blackgrass plant response rating (blackgrass; [3]) | B. signalgrass plant response rating (surinam grass; [3]) | Giant foxtail plant response rating (0 to 10 scale) (giant foxtail; Preemergence, Rate 125 g/ha) | Giant foxtail plant response rating (giant foxtail; [2]) | Giant foxtail plant response rating (giant foxtail; [3]) | Redroot pigweed plant response rating (0 to 10 scale) (pigweed; Preemergence, Rate 125 g/ha) | Redroot pigweed plant response rating (pigweed; [2]) | Redroot pigweed plant response rating (pigweed; [3]) | Rape plant response rating (rape; [2]) | Rape plant response rating (rape; [3]) | Sugarbeets plant response rating (sugar beet; [3])
6: B. signalgrass plant response rating (surinam grass; [1]) | Crabgrass plant response rating (crabgrass; [1]) | Morningglory plant response rating (morningglory; [2]) | Plant response rating, Morningglory (morningglory; [6]) | Plant response rating, Redroot pigweed (pigweed; [6]) | Plant response rating, Wheat (wheat; [6]) | Barnyardgrass plant response rating (bamyardgrass; [10])
4: Plant response rating, Cocklebur (cocklebur; [6]) | Corn plant response rating (corn; [7]) | Plant response rating, Crabgrass (crabgrass; [6]) | Plant response rating, Sugarbeets (sugar beet; [6])
8: Blackgrass plant response rating (blackgrass; [5]) | Plant response rating, Blackgrass (blackgrass; [6]) | B. signalgrass plant response rating (surinam grass; [7]) | Corn plant response rating (corn; [2]) | Corn plant response rating (corn; [3]) | Plant response rating, Giant foxtail (giant foxtail; [6]) | Rape plant response rating (0 to 10 scale) (rape; Preemergence, Rate 125 g/ha) | Sugarbeets plant response rating (0 to 10 scale) (sugar beet; Preemergence, Rate 125 g/ha) | Wheat plant response rating (wheat; [2]) | Wheat plant response rating (wheat; [3]) | Wild oats plant response rating (wild oat; [2]) | Wild oats plant response rating (wild oat; [3])
0: B. signalgrass plant response rating (surinam grass; [4]) | Cocklebur plant response rating (cocklebur; [1]) | Cocklebur plant response rating (0 to 10 scale) (cocklebur; Preemergence, Rate 125 g/ha) | Cocklebur plant response rating (cocklebur; [2]) | Cocklebur plant response rating (cocklebur; [3]) | Cocklebur plant response rating (cocklebur; [4]) | Corn plant response rating (corn; [1]) | Corn plant response rating (0 to 10 scale) (corn; Preemergence, Rate 125 g/ha) | Corn plant response rating (corn; [4]) | Corn plant response rating (corn; [5]) | Crabgrass plant response rating (crabgrass; [4]) | Morningglory plant response rating (morningglory; [1]) | Wheat plant response rating (wheat; [4]) | Wild oats plant response rating (wild oat; [4]) | Wild oats plant response rating (wild oat; [5]) | Nutsedge plant response rating (purple nutsedge; [1]) | Nutsedge plant response rating (0 to 10 scale) (purple nutsedge; Preemergence, Rate 125 g/ha) | Nutsedge plant response rating (purple nutsedge; [4]) | Nutsedge plant response rating (purple nutsedge; [5]) | Plant response rating, Nutsedge (purple nutsedge; [6]) | Rice plant response rating (rice; [8]) | Rice plant response rating (rice; [9]) | Rice plant response rating (rice; [10]) | Rice plant response rating (rice; [11]) | Barnyardgrass plant response rating (bamyardgrass; [8])
